According to patent US20170291958A1, “Compositions and Methods For the Modulation of Ras Proteins” (NEW YORK UNIVERSITY, priority 2016, published 2017):
Entries after “also recorded” stand apart in the source; their conditions may differ.

Tests used:
Format in all cases: cell-based
[1] = test system: ZEB1/TCF8, ZO-1 expression in MiaPaCa-2 cells; test: Immunoblot of migration/EMT gene products in MiaPaCa-2 cells
Procedure: (§1) FIGS. 7A-7E. SUMO inhibitor blocks migration of pancreatic cancer cells with KRASV12 mutation. (FIG. 7A) MiaPaCa-2 cells transfected with various KRAS expression constructs or the vector as indicated for 24 h. A GFP-expressing plasmid was used for co-transfection. Transfected cells were then used for wound-healing assays as described in Methods. Representative images of the assay and GFP expression are shown. (FIG. 7B) Both BxPC-3 and MiaPaCa-2 cells were employed for wound-healing assays. Cells with open scratches were treated with various concentrations of 2-D08 for 18 h. Representative images of cells before and after recovery in the presence of 2-D08 for 18 h are shown. (FIG. 7C & FIG. 7D) Data were summarized from experiments as shown in A and B, respectively. (FIG. 7E) MiaPaCa-2 cells treated with or without 2-D08 were lysed and equal amounts of cell lysates were blotted with antibodies to N-Cadherin, ZEB1/TCF8, ZO-1, PARP-1 and B-actin, respectively.
(§2) RAS proteins were the first, and remain the best-studied, oncoproteins. However, to date no compounds that target RAS have been approved for clinic applications for cancer treatment. As a proof-of-principle study, we next determined whether 2-D08 that blocks RAS sumoylation (FIG. 2A) would suppress tumor cell migration in a KRAS-dependent manner.
Total cell lysates were prepared in a buffer [50 mM Tris-HCl (pH 7.5), 150 mM NaCl, 1% IGEPAL, 0.1% SDS, and 0.5% sodium deoxycholate] supplemented with a mixture of protease and phosphatase inhibitors. HEK293T Tet-on cells were engineered to express KRASV12 or KRASV12/42R mutants in the presence of doxycycline. At various times post addition of doxycycline, cells were collected and lysed in the same buffer as above. Protein concentrations were measured using the bicinchoninic acid protein assay reagent kit (Pierce Chemical Co). Equal amounts of protein lysates from various samples were used for SDS-PAGE analysis followed by immunoblotting. […]

KRAS sumoylation = KRAS sumoylation in transfected MiaPaCa-2 cells (Flag immunoprecipitation, HA blot); conditions: MiaPaCa-2 cells transfected with Flag-KRAS and HA-SUMO3, treated 18 h (FIG. 2A)
Procedure: FIGS. 2A-2E. Lysine 42 is a primary site for sumoylation. (FIG. 2A) MiaPaCa-2 cells were transfected with Flag-KRAS and HA-SUMO3 expression constructs for 24 h and then treated with or without 2-D08 for 18 h. Cells were then lysed and equal amounts of the lysates were immunoprecipitated with the anti-Flag antibody. Flag precipitates, along with lysate inputs, were blotted with antibodies to HA and Flag, respectively. (FIG. 2B) HEK293T cells were co-transfected with plasmid constructs expressing Flag-KRAS, HA-SUMO3, and SENP isoforms as indicated. Equal amounts of protein lysates were immunoprecipitated with the anti-Flag antibody. Flag immunoprecipitates were immunoblotted with antibodies to Flag or HA. […]
Total cell lysates were prepared in a buffer [50 mM Tris-HCl (pH 7.5), 150 mM NaCl, 1% IGEPAL, 0.1% SDS, and 0.5% sodium deoxycholate] supplemented with a mixture of protease and phosphatase inhibitors. […] Protein concentrations were measured using the bicinchoninic acid protein assay reagent kit (Pierce Chemical Co). […]
HEK-293T cells were lysed in TBSN buffer [20 mM Tris-Cl (pH 8.0), 150 mM NaCl, 0.5% NP-40, 5 mM EGTA, 1.5 mM EDTA, 0.5 mM Na3VO4, and […]-Glycerol phosphate]. […] After incubation, proteins bound to each resin were washed extensively with the binding buffer, eluted in the SDS-PAGE sample buffer, and analyzed by SDSPAGE.

MiaPaCa-2 cells = test: Wound-healing assay, MiaPaCa-2 cells; conditions: MiaPaCa-2 cells (KRASV12), various concentrations, 18 h (FIG. 7B, 7D)
Procedure: as §1
as §2, with “manner. […]” for “manner.”

BxPC-3 cells = test: Wound-healing assay, BxPC-3 cells; conditions: BxPC-3 cells that harbor no KRAS mutation, various concentrations, 18 h (FIG. 7B, 7D)
Procedure: as §1
as §2, with “manner. […]” for “manner.”

[2] = MiaPaCa-2 cells, immunoblot (FIG. 7E)

O=c1cc(-c2ccc(O)c(O)c2O)oc2ccccc12 [2-D08, 2-(2,3,4-Trihydroxyphenyl)-4H-chromen-4-one]
expression of ZEB1/TCF8 [1, 2]: suppressed expression of ZEB1/TCF8 | expression of ZO-1 [1, 2]: promoted expression of ZO-1 | expression of genes involved in EMT ([1]; pancreatic cancer cells with KRASV12 (FIG. 7)): suppresses expression of genes involved in EMT | KRAS sumoylation (KRAS sumoylation): blocked KRAS sumoylation in a concentration-dependent manner | cell migration (wound healing) (MiaPaCa-2 cells): blocked MiaPaCa-2 cell migration in a concentration-dependent manner; also recorded: reduces migration rate of pancreatic cancer cells with KRASV12 in a concentration-dependent manner | cell migration (wound healing) (BxPC-3 cells): did not have an effect on inhibiting cell migration
